From patent US9115092B2, “Substituted quinazoline and pyrido-pyrimidine derivatives” (Asana Biosciences, LLC, priority 2010, dated 2015)

Experiments:
[1] = biological target: T1, PI3Kα (wild-type), P110/P85α (Homo sapiens, UniProt P42336); experiment: PI3 Kinase TR-FRET assay, PI3Kα (wild-type); type: biochemical
T1 construct: made in house; host or cells: SF9 insect cells
Outline: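 TR-FRET read-out of PIP3 formation via biotin-PIP3 displacement (665/615 nm ratio) gave IC50 curves. Enzyme: 5 ng wild-type P110/P85α from Sf9 cells, 60 min RT with compound and PIP2 (MgCl2 40 mM, DTT 5 mM), then 30 min RT kinase reaction at 10 μM ATP and 10 μM PIP2.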

mTOR kinase = biological target: T2, mTOR kinase (Homo sapiens, UniProt P42345); experiment: mTOR kinase TR-FRET assay; type: biochemical; conditions: read-out: mTO R
T2 construct: purchased Millipore, USA
Outline: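 TR-FRET read-out (340 nm excitation, 615/665 nm emission) of Thr389 phosphorylation of a ULight-labeled p70 S6K peptide (50 nM) by mTOR, 20 μM ATP, 60 min room temperature after 60 min compound preincubation. Buffer HEPES pH 7.5 with MnCl2, EGTA; IC50 by sigmoidal dose-response.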

T1 sequence (P42336 whole entry): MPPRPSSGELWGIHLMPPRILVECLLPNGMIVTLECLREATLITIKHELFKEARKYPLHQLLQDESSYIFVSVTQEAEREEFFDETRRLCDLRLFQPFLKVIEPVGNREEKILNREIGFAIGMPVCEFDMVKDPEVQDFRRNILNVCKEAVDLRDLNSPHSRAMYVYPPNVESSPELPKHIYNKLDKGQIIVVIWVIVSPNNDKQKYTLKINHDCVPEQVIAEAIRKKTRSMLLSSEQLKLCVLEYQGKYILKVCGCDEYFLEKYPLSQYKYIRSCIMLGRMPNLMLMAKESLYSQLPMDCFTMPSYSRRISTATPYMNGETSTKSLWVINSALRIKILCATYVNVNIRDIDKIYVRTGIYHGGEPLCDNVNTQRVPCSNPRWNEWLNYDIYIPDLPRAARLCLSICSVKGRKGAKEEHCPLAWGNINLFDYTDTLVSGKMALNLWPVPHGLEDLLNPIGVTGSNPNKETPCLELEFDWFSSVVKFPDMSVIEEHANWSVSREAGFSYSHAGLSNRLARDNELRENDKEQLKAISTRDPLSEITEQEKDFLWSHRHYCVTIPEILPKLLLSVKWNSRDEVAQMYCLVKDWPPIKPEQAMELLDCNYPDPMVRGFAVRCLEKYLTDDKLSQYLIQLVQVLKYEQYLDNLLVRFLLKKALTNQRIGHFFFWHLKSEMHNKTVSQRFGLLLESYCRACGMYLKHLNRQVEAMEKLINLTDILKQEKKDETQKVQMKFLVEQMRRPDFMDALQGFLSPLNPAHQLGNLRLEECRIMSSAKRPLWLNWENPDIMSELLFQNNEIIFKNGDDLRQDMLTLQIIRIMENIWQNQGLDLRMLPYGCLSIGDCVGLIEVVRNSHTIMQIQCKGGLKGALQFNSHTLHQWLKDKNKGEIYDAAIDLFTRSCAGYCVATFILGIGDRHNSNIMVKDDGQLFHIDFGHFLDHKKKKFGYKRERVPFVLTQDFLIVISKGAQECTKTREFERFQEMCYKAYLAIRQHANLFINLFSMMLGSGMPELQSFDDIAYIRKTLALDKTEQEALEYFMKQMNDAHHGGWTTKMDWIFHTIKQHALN
T1 sequence (P27986 whole entry partner): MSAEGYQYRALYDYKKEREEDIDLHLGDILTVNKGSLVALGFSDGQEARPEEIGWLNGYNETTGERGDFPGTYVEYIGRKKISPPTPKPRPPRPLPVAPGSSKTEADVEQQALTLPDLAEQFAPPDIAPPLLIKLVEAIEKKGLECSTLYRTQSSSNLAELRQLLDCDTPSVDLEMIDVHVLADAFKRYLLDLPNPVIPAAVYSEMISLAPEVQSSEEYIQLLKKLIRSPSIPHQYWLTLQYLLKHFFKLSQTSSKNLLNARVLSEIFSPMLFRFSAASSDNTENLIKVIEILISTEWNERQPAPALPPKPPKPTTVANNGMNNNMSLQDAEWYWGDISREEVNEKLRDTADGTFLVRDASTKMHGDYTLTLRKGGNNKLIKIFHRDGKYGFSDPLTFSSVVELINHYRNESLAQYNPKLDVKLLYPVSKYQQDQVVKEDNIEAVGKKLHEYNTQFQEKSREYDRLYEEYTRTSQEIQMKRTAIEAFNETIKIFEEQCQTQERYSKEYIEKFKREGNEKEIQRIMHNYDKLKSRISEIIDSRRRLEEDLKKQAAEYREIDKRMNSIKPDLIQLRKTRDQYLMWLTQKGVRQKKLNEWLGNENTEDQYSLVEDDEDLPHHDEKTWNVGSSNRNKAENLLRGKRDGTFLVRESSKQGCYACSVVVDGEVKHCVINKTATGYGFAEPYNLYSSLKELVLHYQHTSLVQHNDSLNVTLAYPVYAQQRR

Row | SMILES | IC50 [1] [nM] | IC50 (mTOR kinase) [nM]
1 | CN(C)C(=O)c1ccc(NC(=O)Nc2ccc(-c3nc(N4CCOCC4)c4ncc(-c5cccnc5)cc4n3)cc2)c(F)c1 [Example 153, 3-fluoro-N,N-dimethyl-4-(3-(4-(4-morpholino-7-(pyridin-3-yl)pyrido[3,2-d]pyrimidin-2-yl)phenyl)ureido)-benzamide] | < 50 | < 50
2 | CN(C)C(=O)c1ccc(NC(=O)Nc2ccc(-c3nc(N4CCOCC4)c4ccc(-c5ccc(CO)o5)cc4n3)cc2)c(F)c1 [Example 219, 3-fluoro-4-(3-(4-(7-(5-(hydroxymethyl)furan-2-yl)-4-morpholino-quinazolin-2-yl)phenyl)ureido)-N,N-dimethyl-benzamide] | 50 to 200 | 50 to 200
3 | CN(C)C(=O)c1ccc(NC(=O)Nc2ccc(-c3nc(N4CCOCC4)c4ccc(-c5ccc(N)nc5)cc4n3)cc2)cc1 [Example 177, 4-(3-(4-(7-(6-aminopyridin-3-yl)-4-morpholino-quinazolin-2-yl)phenyl)ureido)-N,N-dimethyl-benzamide] | < 50 | < 50
4 | CC1CN(c2nc(-c3ccc(NC(=O)Nc4ccc(C(=O)N(C)C)cc4)cc3)nc3cc(-c4cnn(C)c4)cnc23)CCO1 (stereo not shown) [Example 148, N,N-dimethyl-4-(3-(4-(7-(1-methyl-1H-pyrazol-4-yl)-4-(2-methylmorpholino)pyrido[3,2-d]pyrimidin-2-yl)phenyl)ureido)-benzamide] | < 50 | < 50
5 | COc1ncc(-c2cnc3c(N4CCOCC4)nc(-c4ccc(NC(=O)Nc5ccc(C(=O)N(C)C)cc5F)cc4)nc3c2)cn1 [Example 157, 3-fluoro-4-(3-(4-(7-(2-methoxypyrimidin-5-yl)-4-morpholino-pyrido[3,2-d]pyrimidin-2-yl)phenyl)ureido)-N,N-dimethyl-benzamide] | < 50 | < 50
6 | CN(C)C(=O)c1ccc(NC(=O)Nc2ccc(-c3nc(N4CCOCC4)c4cc(F)c(-c5ccco5)cc4n3)cc2)cc1 [Example 149, 4-(3-(4-(6-fluoro-7-(furan-2-yl)-4-morpholino-quinazolin-2-yl)phenyl)ureido)-N,N-dimethyl-benzamide] | 50 to 200 | 50 to 200
7 | CN(C)C(=O)c1ccc(NC(=O)Nc2ccc(-c3nc(N4CCOCC4)c4ccc(-c5ccc(C#N)o5)cc4n3)c(F)c2)cc1 [Example 12, 4-(3-(4-(7-(5-cyanofuran-2-yl)-4-morpholino-quinazolin-2-yl)-3-fluorophenyl)ureido)-N,N-dimethyl-benzamide] | < 50 | < 50

The remaining lines, values ahead:

Row | IC50 [1] [nM] | IC50 (mTOR kinase) [nM] | SMILES
8 | 50 to 200 | 50 to 200 | CN(C)C(=O)c1ccc(NC(=O)Nc2ccc(-c3nc(N4CCOCC4)c4ccc(-c5ccc(C(C)(C)O)o5)cc4n3)c(F)c2)cc1 [Example 276, 4-(3-(3-fluoro-4-(7-(5-(2-hydroxypropan-2-yl)furan-2-yl)-4-morpholino-quinazolin-2-yl)phenyl)ureido)-N,N-dimethyl-benzamide]
9 | 50 to 200 | 201 to 10000 | CN(C)C(=O)c1ccc(NC(=O)Nc2ccc(-c3nc(N4CCOCC4)c4ccc(-c5cccc(F)c5)cc4n3)cc2)cc1 [Example 47, 4-(3-{4-[7-(3-fluoro-phenyl)-4-morpholin-4-yl-quinazolin-2-yl]-phenyl}-ureido)-N,N-dimethyl-benzamide]
10 | < 50 | < 50 | O=C(Nc1ccc(C(=O)N2CCC(O)C2)cc1)Nc1ccc(-c2nc(N3CCOCC3)c3ccc(-c4ccco4)cc3n2)cc1 (stereo not shown) [Example 232, 1-(4-(7-(furan-2-yl)-4-morpholino-quinazolin-2-yl)phenyl)-3-(4-(3-hydroxypyrrolidine-1-carbonyl)phenyl)urea]
11 | < 50 | < 50 | Cc1ncccc1-c1ccc2c(N3CCOCC3)nc(-c3ccc(NC(=O)Nc4ccc(C(=O)N(C)C)cc4)cc3)nc2c1 [Example 165, N,N-dimethyl-4-(3-(4-(7-(2-methylpyridin-3-yl)-4-morpholino-quinazolin-2-yl)phenyl)ureido)-benzamide]
